For series [1], the system named is N2A cells. Put plainly: Lipid peroxidation, HNE Michael adducts, after tBHP. The conditions noted are these: t-BHP 1 mM, 3 h. The format is cell-based, murine. On the procedure: Lipid peroxidation was evaluated by measuring HNE Michael adducts. 4-HNE is one of the major aldehydic products of the peroxidation of membrane polyunsaturated fatty acids. N2A cells were seeded on glass bottom dish 1 day before t-BHP treatment (1 mM, 3 h, 37° C., 5% CO2) in the presence of absence of SS-31 (10^−8 to 10^−10 M). Cells were then washed twice with PBS and fixed 30 min with 4% paraformaldehyde in PBS at RT and then washed 3 times with PBS. Cells were then permeabilized, treated with rabbit-anti-HNE antibody followed by the secondary antibody (goat anti-rabbit IgG conjugated to biotin). Cells were mounted in Vectashield and imaged using a Zeiss fluorescence microscope using an excitation wavelength of 460±20 nm and a longpass filter of 505 nm for emission.

The test system of another series is G93A mice. Put plainly: Lumbar spinal cord cell counts and immunostaining in ALS mice. Type of series: in vivo. From the text:
FIG. 27. Attenuation of motor neuron loss by SS-31 in the ventral horn of the lumbar spinal cord of G93A mice. Photomicrographs show cresyl violet stained sections through the ventral horn of the lumbar spinal cord from non-transgenic control (A) and G93A mice treated with vehicle (PBS) (B) or SS-31 (C) at 110 days of age. […] Values are mean±standard error of means.
FIG. 28A-28C. 4-hydroxynonenol immunostaining. Photomicrographs of representative sections through the ventral horn of the lumbar spinal cord of wild-type control (A), and G93A mice treated with vehicle (B) or SS-31 (C) show generalized reduction of 4-hydroxynonenal staining in neurons and neurophils in drug-treated mice.
FIG. 29A-29C. Nitrotyrosine immunostaining. Photomicrographs of representative sections through the ventral horn of the lumbar spinal cord of wild-type control (A), and G93A mice treated with vehicle (B) or SS-31 (C) show generalized reduction of nitrotyrosine staining in neurons and neurophils in drug-treated mice.

In series [2] the test system is N2A cells. Put plainly: Mitochondrial function, MTT assay, after tBHP. Type of series: cell-based, murine. On the procedure: FIG. 23A-23B. SS-31 protected against tBHP-induced […]. (A) SS-31 protected mitochondrial viability in N2A cells treated with tBHP for 24 h. Mitochondrial viability was evaluated using the MTT assay (*P<0.01 compared to untreated cells, *P<0.05, P<0.01 compared to tBHP alone). (B) SS-31 protected mitochondrial viability in SH-SY5Y cells treated with tBHP for […] (*P<0.01 compared to untreated cells; **P<0.01 compared to tBHP alone).
Only viable mitochondria containing NADPH dehydrogenase activity are capable of cleaving MTT to the formazan. A 50 μM tBHP induced 50% loss of mitochondrial function in N2A cells (FIG. 23A, […]) and 30% loss of mitochondrial function in SH-SY5Y cells (FIG. 23B, P<0.01). […] Treatment of N2A cells with SS-31 alone had no effect on mitochondrial function.
Background: Tetrazolium dyes change colour on reduction, which living cells bring about.

The test system of another series is SH-SY5Y cells. Put plainly: Apoptosis by nuclear morphology (Hoechst 33342) after tBHP. Type of series: cell-based, human. On the procedure: FIG. 20A-20C. […] (A)(a-c; a′-c′) N2A cells were treated with 50 μM tBHP alone or with SS-31 for 12 h. Cells were stained with Hoechst 33342 for 20 min., fixed, and imaged by fluorescent microscopy. (a) Untreated cells show uniformly stained nuclei (a′). […] (c) Cells treated with tBHP and 1 nM SS-31 had less nuclear changes (c′). […] Apoptotic cells were counted using MetaMorph software. *P<0.01 compared to untreated cells; *P<0.01 compared to tBHP alone. […] SH-SY5Y cells were treated with 25 μM tBHP for 24 h. *P<0.01 compared to untreated cells; *P<0.01 compared to tBHP alone.
SH-SY5Y cells were grown on 96-well plates, treated with t-BHP (0.025 mM) in the absence or presence of SS-31 (10^−12M-10^−9M) at 37° C. for 24 h. All treatments were carried out in quadriplicates. Cells were then stained with […] Hoechst 33342 for 20 min, fixed with 4% paraformaldehyde, and imaged using a Zeiss fluorescent microscope (Axiovert 200M) equipped with the Zeiss Acroplan x20 objective. Nuclear morphology was evaluated using an excitation wavelength of 350±10 nm and a longpass filter of 400 nm for emission. All images were processed and analyzed using the MetaMorph software (Universal Imaging Corp., West Chester, Pa.). Uniformly stained nuclei were scored as healthy, viable neurons, while condensed or fragmented nuclei were scored as apoptotic.

Series [3] concerns N2A cells. The series can be described thus: Mitochondrial potential (TMRM) after tBHP. The conditions noted are these: 0.1 mM t-BHP, 1 nM SS-31, 6 h. The format is cell-based, murine. Here is the method:
N2A cells in glass bottom dish were treated with 0.1 mM t-BHP, alone or with 1 nM SS-31, for 6 h. Cells were then loaded with 10 μm of dichlorofluorescin (ex/em=485/530) for 30 min at 37° C., 5% CO2. Then cells were subjected 3 times wash with HBSS and stained with 20 nM of Mitotracker TMRM (ex/em=550/575 nm) for 15 min at 37° C. and examined by confocal laser scanning microscopy.

Another series has as its system Caco-2. Put plainly: Cellular uptake of [3H][Dmt1]DALDA. The format is in vitro ADME, human. Conditions: estimated. On the procedure:
The cellular uptake of [^3H][Dmt^1]DALDA was studied using a human intestinal epithelial cell line (Caco-2), and confirmed with SH-SY5Y (human neuroblastoma cell), HEK293 (human embryonic kidney cell) and CRFK cells (kidney epithelial cell). Monolayers of cells were grown on 12-well plates (5×10^5 cells/well) coated with collagen for 3 days. On day 4, cells were washed twice with pre-warmed HBSS, and then incubated with 0.2 ml of HBSS containing either 250 nM [^3H][Dmt^1]DALDA at 37° C. […] 4° C. for various times up to 1 h.
In a separate experiment, cells were incubated with a range of [Dmt^1]DALDA concentrations (1 μM-3 mM) for 1 h at 37° C. At the end of the incubation period, cells were washed 4 times with HBSS, and 0.2 ml of 0.1N NaOH with 1% SDS was added to each well. The cell contents were then transferred to scintillation vials and radioactivity counted. To distinguish between internalized radioactivity from surface-associated radioactivity, an acid-wash step was included. Prior to cell lysis, cells were incubated with 0.2 ml of 0.2 M acetic acid/0.05 M NaCl for 5 min on ice.

Where a SMILES comes first, the peptide text is derived from it. [ ]: non-standard residue; d: D form. Dmt = Cc1cc(O)cc(C)c1C[C@H](N)C(=O)O

Consider `Cc1cc(O)cc(C)c1C[C@H](NC(=O)[C@H](N)CCCNC(=N)N)C(=O)N[C@@H](CCCCN)C(=O)N[C@@H](Cc1ccccc1)C(N)=O` [SS-31, D-Arg-2′6′-Dmt-Lys-Phe-NH2] (H-[dR][Dmt]KF-NH2; N-terminus assumed), for which the “lipid peroxidation (HNE adducts)” value with N2A cells [1] is “inhibited lipid peroxidation”. For the same compound, the “cell loss in the lumbar spinal cord (stereological cell counts)” value with G93A mice (mouse, in vivo) is listed as “significantly ameliorated”. Besides, in the series with G93A mice (spinal cord), the “3-nitrotyrosine immunostaining (protein nitration)” value was “markedly reduced” and the “4-hydroxynonenenal immunostaining (lipid peroxidation)” value is “markedly reduced”. For the same compound, in the series with N2A cells [2] (tBHP 50-100 μM, 24 h), the “tBHP-induced mitochondrial toxicity/dysfunction (MTT)” value is recorded as “dose-dependently reduced”. Also, the “mitochondrial function, peptide alone” value in the series on N2A cells [2] (without tBHP) is “no effect”. In addition, the “number of apoptotic cells” value with SH-SY5Y cells (25 μM tBHP, 24 h) was “dose-dependently reduced”. Further, the “apoptosis induced by a low dose of t-BHP” value with SH-SY5Y cells (0.025 mM t-BHP, 1 nM SS-31, 24 h) is given as “prevents apoptosis”. In addition, in the series on SH-SY5Y cells (24 h, t-BHP 0.05 mM), the “percent of apoptotic cells” value is “dose-dependently reduced”. In the series on N2A cells [3], the “mitochondrial depolarization (TMRM fluorescence)” value is reported as “prevented mitochondrial depolarization”.
In the case of 2′,6′-Dmt-Arg-Phe-Lys-NH2 [SS-02], the “intracellular concentration relative to extracellular concentration” value with Caco-2 is on record as “approximately 50 times”.

Values taken from patent publication US9950026B2, “Methods for reducing oxidative damage” (Cornell Research Foundation, Inc., priority 2004, dated 2018).
